# In ChEMBL document CHEMBL1132223, “Quantitative structure-activity relationship of human neutrophil collagenase (MMP-8) inhibitors using comparative molecular field analysis and X-ray structure analysis” (J Med Chem, 1999):
# Molecular target: Neutrophil collagenase (Homo sapiens, UniProt P22894)
# Assay: Inhibition of human neutrophil collagenase [Matrix Metalloprotease-8, MMP-8]
# Chain of Neutrophil collagenase (P22894 whole entry): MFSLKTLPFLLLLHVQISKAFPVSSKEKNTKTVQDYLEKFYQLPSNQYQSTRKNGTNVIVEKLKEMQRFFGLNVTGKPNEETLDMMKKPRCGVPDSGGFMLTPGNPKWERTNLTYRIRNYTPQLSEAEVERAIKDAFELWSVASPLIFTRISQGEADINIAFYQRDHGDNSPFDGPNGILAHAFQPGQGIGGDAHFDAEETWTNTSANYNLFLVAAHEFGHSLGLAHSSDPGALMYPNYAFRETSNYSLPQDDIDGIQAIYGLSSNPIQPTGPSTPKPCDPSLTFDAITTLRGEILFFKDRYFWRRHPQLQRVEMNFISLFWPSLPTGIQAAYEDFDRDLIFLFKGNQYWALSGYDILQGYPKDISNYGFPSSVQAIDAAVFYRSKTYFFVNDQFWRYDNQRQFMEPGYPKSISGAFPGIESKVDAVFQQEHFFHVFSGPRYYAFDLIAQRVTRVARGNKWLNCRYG
row,Structure (SMILES),IC50 [nM]
1,CN(C)c1ccc(-c2ccc(S(=O)(=O)N3Cc4ccccc4C[C@@H]3C(=O)NO)cc2)cc1,2
2,COc1ccc(S(=O)(=O)N2Cc3cc(NC(=O)[C@H](C)NC(=O)OC(C)(C)C)ccc3C[C@H]2C(=O)NO)cc1,2
3,Nc1ccc2c(c1)CN(S(=O)(=O)c1ccc(-c3ccc(Cl)cc3)cc1)[C@@H](C(=O)C(=O)O)C2,7
4,O=C(O)C(=O)[C@H]1Cc2ccccc2CN1S(=O)(=O)c1ccc(-c2ccc(Cl)cc2)cc1,5
5,COc1ccc(S(=O)(=O)N2Cc3ncn(C)c3C[C@@H]2C(=O)O)cc1,10000
6,COc1ccc(S(=O)(=O)N2Cc3cc(NC(=O)CCC(=O)O)ccc3C[C@@H]2C(=O)NO)cc1,40
7,O=C(NCc1csc(S(=O)(=O)N2Cc3ccccc3C[C@@H]2C(=O)NO)c1)c1ccccc1,800
8,O=C(O)C(=O)[C@H]1Cc2ccc([N+](=O)[O-])cc2CN1S(=O)(=O)c1ccc(-c2ccc(F)cc2)cc1,40
9,CCCCOc1ccc(S(=O)(=O)N2Cc3ccccc3C[C@@H]2C(=O)NO)cc1,2
10,Nc1ccc2c(c1)CN(S(=O)(=O)c1ccc(-c3ccc(F)cc3)cc1)[C@@H](C(=O)NO)C2,2
11,O=C(NO)[C@H]1Cc2ccccc2CN1S(=O)(=O)c1ccc(-c2ccc(Cl)cc2)cc1,3
12,O=C(NO)[C@H]1Cc2ccccc2CN1S(=O)(=O)Cc1ccc(-c2ccccn2)s1,2
13,COc1ccc(OC(=O)Nc2cccc(S(=O)(=O)N3Cc4ccccc4C[C@@H]3C(=O)NO)c2)cc1,200
14,O=C(NO)[C@H]1Cc2ccccc2CN1S(=O)(=O)c1ccc2ccccc2c1,70
15,O=C(NO)[C@H]1Cc2ccccc2CN1S(=O)(=O)Cc1ccccc1,3000
16,O=C(NO)[C@H]1Cc2ccccc2CN1S(=O)(=O)c1ccc2[nH]c(-c3ccccc3)nc2c1,40
17,CN(C)c1ccc(Oc2ccc(S(=O)(=O)N3Cc4ccccc4C[C@@H]3C(=O)C(=O)O)cc2)cc1,30
18,O=C(NO)[C@H]1Cc2ccccc2CN1S(=O)(=O)c1ccc(-c2ccccc2)cc1,2
19,O=C(O)C(=O)[C@H]1Cc2cc([N+](=O)[O-])ccc2CN1S(=O)(=O)c1ccc(-c2ccc(Cl)cc2)cc1,20
20,COc1ccc(S(=O)(=O)N2Cc3cc(NC(=O)OC(C)(C)C)ccc3C[C@@H]2C(=O)NO)cc1,3
21,CC(C)(C)OC(=O)Nc1ccc2c(c1)CN(S(=O)(=O)c1ccc(-c3ccc(F)cc3)cc1)[C@@H](C(=O)NO)C2,10
22,O=C(NO)[C@H]1Cc2ccccc2CN1S(=O)(=O)CCc1ccncc1,30
23,COc1ccc(S(=O)(=O)N2Cc3ncn(C)c3C[C@@H]2C(=O)NO)cc1,3
24,CN(C)c1ccc(-c2ccc(S(=O)(=O)N3Cc4ccccc4C[C@@H]3C(=O)C(=O)O)cc2)cc1,1
25,O=C(NO)[C@H]1Cc2ccccc2CN1S(=O)(=O)c1ccc(-c2ccon2)s1,8
26,O=C(Nc1cccc(S(=O)(=O)N2Cc3ccccc3C[C@@H]2C(=O)NO)c1)c1ccccc1O,200
27,COc1ccc(S(=O)(=O)N2Cc3ccccc3C[C@@H]2C(=O)NO)cc1,4

row,Structure (SMILES),IC50 [nM]
1,CSc1nccc(-c2ccc(S(=O)(=O)N3Cc4ccccc4C[C@@H]3C(=O)NO)s2)n1,20
2,CC(C)(C)OC(=O)Nc1ccc2c(c1)C[C@H](C(=O)C(=O)O)N(S(=O)(=O)c1ccc(-c3ccc(F)cc3)cc1)C2,30
3,CCOC(=O)Nc1ccc(S(=O)(=O)N2Cc3ccccc3C[C@@H]2C(=O)NO)cc1,30
4,COc1ccc(S(=O)(=O)N2Cc3cc(NC(=O)[C@H](C)N)ccc3C[C@H]2C(=O)C(=O)O)cc1,2000
5,COc1ccc(S(=O)(=O)N2Cc3ccccc3C[C@H]2C(=O)NO)cc1,1000
6,O=C(O)C(=O)[C@H]1Cc2ccccc2CN1S(=O)(=O)CCc1ccc(-c2ccccc2)cc1,20
7,O=C(O)C(=O)[C@H]1Cc2ccccc2CN1S(=O)(=O)c1ccc2oc3ccccc3c2c1,500
8,CSc1nccc(-c2ccc(S(=O)(=O)N3Cc4ccccc4C[C@@H]3C(=O)C(=O)O)s2)n1,1000
9,COc1ccc(S(=O)(=O)N2Cc3cc(NC(=O)[C@H](CC(=O)OC(C)(C)C)NC(=O)OCc4ccccc4)ccc3C[C@H]2C(=O)NO)cc1,10
10,CNC(=O)c1ccc(Oc2ccc(S(=O)(=O)N3Cc4ccccc4C[C@@H]3C(=O)C(=O)O)cc2)cc1,40
11,O=C(O)C(=O)[C@H]1Cc2ccccc2CN1S(=O)(=O)c1ccc(-n2nccn2)cc1,90
12,O=C(NO)[C@H]1Cc2ccccc2CN1S(=O)(=O)c1ccc(C(F)(F)F)cc1,50
13,O=C(NO)[C@H]1Cc2ccccc2CN1S(=O)(=O)c1ccc(OCc2ccc(F)cc2)cc1,2
14,CC(=O)Nc1ccc(S(=O)(=O)N2Cc3ccccc3C[C@@H]2C(=O)NO)cc1,100
15,O=C(O)C(=O)[C@H]1Cc2ccccc2CN1S(=O)(=O)c1ccc(/C=C/c2ccccc2)cc1,60
16,"O=C(O)C(=O)C1Cc2ccccc2CN1S(=O)(=O)c1ccc(-c2ccc(Cl)cc2)cc1 (single isomer, unassigned)",3000
17,O=C(NO)[C@H]1Cc2ccccc2CN1S(=O)(=O)c1ccc(N2CCOCC2)cc1,100
18,O=C(NO)[C@H]1Cc2ccccc2CN1S(=O)(=O)c1cc(Br)c(Br)s1,500
19,COc1ccc(S(=O)(=O)N2Cc3cc(O)ccc3C[C@@H]2C(=O)NO)cc1,1
20,COc1ccc(S(=O)(=O)N2Cc3cc(N)ccc3C[C@@H]2C(=O)C(=O)O)cc1,2000
21,N#Cc1ccc(Oc2ccc(S(=O)(=O)N3Cc4ccccc4C[C@@H]3C(=O)C(=O)O)cc2)cc1,10
22,COC(=O)c1csc(S(=O)(=O)N2Cc3ccccc3C[C@@H]2C(=O)NO)c1OC,80
23,O=C(O)C(=O)[C@H]1Cc2ccccc2CN1S(=O)(=O)c1ccc(-c2ccon2)s1,600
24,O=C(O)C(=O)[C@H]1Cc2ccccc2CN1S(=O)(=O)c1ccc(-c2nc3ccccc3o2)cc1,80
25,CCCCCCCCCCCCCCCCS(=O)(=O)N1Cc2ccccc2C[C@@H]1C(=O)NO,3000
26,O=C(NO)[C@H]1Cc2ccccc2CN1S(=O)(=O)c1cc(S(=O)(=O)c2ccccc2)cs1,2000
27,COc1ccc(S(=O)(=O)N2Cc3cc([N+](=O)[O-])ccc3C[C@@H]2C(=O)NO)cc1,8
